14 molecules from patent US11161825B2, “4-oxo-2,3,4,5-tetrahydro-1H-1,5-benzodiazepine-7-carboxamides” (Bayer Aktiengesellschaft, priority 2017, dated 2021) can be followed below.

For one experiment, the target named is T1, SMYD3 (Homo sapiens, UniProt Q9H7B4).
T1 construct: The SMYD3 full length enzyme was produced in-house by expression (with an N-terminal 6×His tag) in E. coli; 6xHis (N); made in house; host or cells: E. coli
T1 sequence (Q9H7B4 1-428): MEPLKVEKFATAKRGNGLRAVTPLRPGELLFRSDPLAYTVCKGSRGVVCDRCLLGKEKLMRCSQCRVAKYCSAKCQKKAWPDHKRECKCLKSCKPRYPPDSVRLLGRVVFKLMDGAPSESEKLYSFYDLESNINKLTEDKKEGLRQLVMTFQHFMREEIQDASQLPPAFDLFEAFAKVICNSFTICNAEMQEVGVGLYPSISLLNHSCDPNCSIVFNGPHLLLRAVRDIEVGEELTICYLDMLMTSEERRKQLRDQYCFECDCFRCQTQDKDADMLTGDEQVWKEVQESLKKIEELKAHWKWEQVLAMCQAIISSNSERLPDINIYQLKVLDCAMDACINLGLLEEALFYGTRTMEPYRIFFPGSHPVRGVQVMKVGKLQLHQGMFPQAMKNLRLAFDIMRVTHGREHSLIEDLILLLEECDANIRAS
The experiment is described as follows: SMYD3 Scintillation Proximity Assay (SPA), methylation of MAP3K2 Peptide. Format: biochemical. Particulars: SMYD3 full length enzyme 10 nM, 3H-SAM 125 nM, MAP3K2 Peptide 1 μM, 120 min at 22° C. As to the method:
SMYD3 Scintillation Proximity Assay (SPA)
The SMYD3 full length enzyme was produced in-house by expression (with an N-terminal 6×His tag) in E. coli and purification by affinity chromatography on a Ni-NTA Sepharose column followed by a size exclusion chromatography step on a Superdex 200 16/60 column (GE Healthcare).
To this end, 100-fold concentrated compound solutions (in DMSO) were previously prepared by serial dilution (1:3.4) of 2 mM stocks in a clear low volume 384-well source microtiter plate (Greiner Bio-One), from which 100 nl of compounds were transferred into a white low volume test microtiter plate from the same supplier. […] The resulting mixture (5 μl final volume) was shortly centrifuged (2 min., 1500 rpm) and incubated at 22° C. during 120 min. […] Plates containing the stopped reaction were sealed with transparent adhesive foil (Perkin Elmer), centrifuged (2 min., 1500 rpm), and further incubated overnight at 4° C. in order to allow the SPA signals to develop. Subsequently, the amount of product was evaluated by measuring the energy transfer from the […] emitted by the 3H-labeled substrate to the scintillator co-polymerized in the bead's matrix, using a TopCount NXT scintillation counter (Packard) with the standard instrument settings for this purpose. The resulting scintillation counts were taken as indicator for the amount of methylated peptide per well. […] IC50 values were calculated by fitting the normalized inhibition data to a 4-parameter logistic equation using the XLFit analysis software (IDBS).
(In general: SPA uses beads or plates that emit light when radiolabelled molecules are held near them.)

The target in experiment [1] is T2, untagged full length SMYD3 (Homo sapiens, UniProt Q9H7B4).
T2 construct: As protein untagged full length SMYD3 was used
T2 sequence (Q9H7B4 1-428): T1 sequence (Q9H7B4 1-428)
The experiment is described as follows: Thermal Shift Assay. Format: binding. The conditions noted are these: protein 1.5-2.0 μM, 5× SYPRO Orange, scans 25° C. to 80° C.; control 4% DMSO. The procedure:
Thermal Shift Assay Thermal melting experiments were performed with a ViiA™ Real-Time PCR machine (Thermo Fisher Scientific) in 384-well microliter plate with a final volume of 5 μL. Melting curves were obtained at a protein concentration of 1.5-2.0 μM and 5× SYPRO Orange (Invitrogen) using buffer containing 20 mM Tris pH7.0; 150 mM NaCl; 1.0 mM DTT. As protein untagged full length SMYD3 was used. […] As control 4% DMSO was used. Scans were measured from 25° C. to 80° C. at a scanning rate of 0.1° C./sec. All TSA data were analyzed by using Genedata Assay Analyzer.

One may read the IC50 as the concentration that inhibits the measured activity by half.

Turning to `C[C@H]1CC(=O)Nc2cc(C(=O)NCCC3CC3)ccc2N1C(=O)NC1CCNCC1` [Example 43, (2S)—N^7-(2-cyclopropylethyl)-2-methyl-4-oxo-N^1-(piperidin-4-yl)-2,3,4,5-tetrahydro-1H-1,5-benzodiazepine-1,7-dicarboxamide], the midpoint of inhibition at SMYD3, the IC50, lay at 481 nM. In experiment [1], the “Thermal shift assay (° C.)” value was 7.49 °C.
Taken in the same sequence, the figures for `C[C@H]1CC(=O)Nc2cc(C(=O)NCCC3CC3)ccc2N1C(=O)N1CCCNCC1` [Example 33, (2S)—N-(2-cyclopropylethyl)-1-(1,4-diazepan-1-ylcarbonyl)-2-methyl-4-oxo-2,3,4,5-tetrahydro-1H-1,5-benzodiazepine-7-carboxamide] were 46 nM and 10.17 °C.
Taken in the same sequence, the figures for `CC1C(=O)Nc2cc(C(=O)NCCC3CCC3)ccc2N(C(=O)N2CCC(N)CC2)C1C` (single isomer, unassigned) [Example 22, 1-[(4-aminopiperidin-1-yl)carbonyl]-N-(2-cyclobutylethyl)-2,3-dimethyl-4-oxo-2,3,4,5-tetrahydro-1H-1,5-benzodiazepine-7-carboxamide] were 22.3 nM and 9.50 °C.
On the same counts, the results for `Cc1nocc1C(=O)N1c2ccc(C(=O)NCCC3CC3)cc2NC(=O)C(C)C1C` (single isomer, unassigned) [Example 9, N-(2-cyclopropylethyl)-2,3-dimethyl-1-[(3-methyl-1,2-oxazol-4-yl)carbonyl]-4-oxo-2,3,4,5-tetrahydro-1H-1,5-benzodiazepine-7-carboxamide] are over 20000 nM and 1.82 °C.
Molecule `CC1CC(=O)Nc2cc(C(=O)NCCC3CCC3)ccc2N1C(=O)c1ccccc1` (racemic) [Example 3, 1-benzoyl-N-(2-cyclobutylethyl)-2-methyl-4-oxo-2,3,4,5-tetrahydro-1H-1,5-benzodiazepine-7-carboxamide] displayed a 50% inhibitory concentration (IC50) against SMYD3 of 1630 nM. The “Thermal shift assay (° C.)” value in experiment [1] stood at 4.56 °C.
On the same counts, the results for `CC1C(=O)Nc2cc(C(=O)NCCC3CCC3)ccc2N(C(=O)N2CCC(N)CC2)C1C` (single isomer, unassigned) [Example 21, 1-[(4-aminopiperidin-1-yl)carbonyl]-N-(2-cyclobutylethyl)-2,3-dimethyl-4-oxo-2,3,4,5-tetrahydro-1H-1,5-benzodiazepine-7-carboxamide] are 54.2 nM and 9.35 °C.
On the same counts, the results for `C[C@H]1CC(=O)Nc2cc(C(=O)NCCC3CC3)ccc2N1C(=O)N1CC2CC2C1` (stereo partly drawn) [Example 23, (2S)-1-(3-azabicyclo[3.1.0]hex-3-ylcarbonyl)-N-(2-cyclopropylethyl)-2-methyl-4-oxo-2,3,4,5-tetrahydro-1H-1,5-benzodiazepine-7-carboxamide] are 58.9 nM and 9.88 °C.
On the same counts, the results for `C[C@H]1CC(=O)Nc2cc(C(=O)NCCC3CC3)ccc2N1C(=O)N1CC[C@H](N)C1.Cl` [Example 37, (2S)-1-{[(3S)-3-aminopyrrolidin-1-yl]carbonyl}-N-(2-cyclopropylethyl)-2-methyl-4-oxo-2,3,4,5-tetrahydro-1H-1,5-benzodiazepine-7-carboxamide hydrochloride (1:1)] are 215 nM and 8.66 °C.
As for `Cc1nocc1C(=O)N1c2ccc(C(=O)NCCC3CCC3)cc2NC(=O)C(C)C1C` (single isomer, unassigned) [Example 16, N-(2-cyclobutylethyl)-2,3-dimethyl-1-[(3-methyl-1,2-oxazol-4-yl)carbonyl]-4-oxo-2,3,4,5-tetrahydro-1H-1,5-benzodiazepine-7-carboxamide], the IC50 against SMYD3 came out at 3380 nM. In experiment [1], the “Thermal shift assay (° C.)” value came out at 3.51 °C.
Turning to `Cc1nocc1C(=O)N1c2ccc(C(=O)NCCC3CCC3)cc2NC(=O)C(C)C1C` (single isomer, unassigned) [Example 13, N-(2-cyclobutylethyl)-2,3-dimethyl-1-[(3-methyl-1,2-oxazol-4-yl)carbonyl]-4-oxo-2,3,4,5-tetrahydro-1H-1,5-benzodiazepine-7-carboxamide], on SMYD3, the IC50 is 4620 nM. Further, the “Thermal shift assay (° C.)” value in experiment [1] amounted to 3.71 °C.
Taken in the same sequence, the figures for `CCCCNC(=O)c1ccc2c(c1)NC(=O)CC(C)N2C(=O)c1ccccc1F` (racemic) [Example 53, N-butyl-1-(2-fluorobenzoyl)-2-methyl-4-oxo-2,3,4,5-tetrahydro-1H-1,5-benzodiazepine-7-carboxamide] were 12300 nM and 2.53 °C.
Taken in the same sequence, the figures for `C[C@H]1CC(=O)Nc2cc(C(=O)NCCC3CC3)ccc2N1C(=O)N1CCC(F)(F)C1` [Example 24, (2S)—N-(2-cyclopropylethyl)-1-[(3,3-difluoropyrrolidin-1-yl)carbonyl]-2-methyl-4-oxo-2,3,4,5-tetrahydro-1H-1,5-benzodiazepine-7-carboxamide] were 706 nM and 7.35 °C.
Taken in the same sequence, the figures for `Cc1nocc1C(=O)N1c2ccc(C(=O)NCCC3CC3)cc2NC(=O)C(C)C1C` (single isomer, unassigned) [Example 8, N-(2-cyclopropylethyl)-2,3-dimethyl-1-[(3-methyl-1,2-oxazol-4-yl)carbonyl]-4-oxo-2,3,4,5-tetrahydro-1H-1,5-benzodiazepine-7-carboxamide] were 4900 nM and 3.77 °C.
Turning to `CC1C(=O)Nc2cc(C(=O)NCCC3CC3)ccc2N(C(=O)N2CCC(N)CC2)C1C` (mixture of isomers) [Example 19, 1-[(4-aminopiperidin-1-yl)carbonyl]-N-(2-cyclopropylethyl)-2,3-dimethyl-4-oxo-2,3,4,5-tetrahydro-1H-1,5-benzodiazepine-7-carboxamide], the IC50 against SMYD3 is 37.2 nM. For the same molecule, the “Thermal shift assay (° C.)” value in experiment [1] worked out at 10.30 °C.
